Measured values reported in publication PMC6862250, “Lipophilicity Determination of Quaternary (Fluoro)Quinolones by Chromatographic and Theoretical Approaches” (International Journal of Molecular Sciences, 2019).

Assays:
Assay type in all cases: physicochemical
[1] = RP-TLC lipophilicity, silica gel C18, methanol-water; settings: for C 0: RP-TLC silica gel C18, C0 = −RM^0/b; for PC1: RP-TLC silica gel C18, first principal component of RM values, contains 86.92% of information; for mRM: RP-TLC silica gel C18, mean value of RM; for R M ^0: RP-TLC silica gel C18, methanol-water 40 to 70% (v/v), intercept of Soczewiński–Wachtmeister equation; for b: RP-TLC silica gel C18, slope of Soczewiński–Wachtmeister equation
Procedure: (§1) The ready-to-use TLC glass plates covered by octadecyl(C18)- and octyl(C8)-modified TLC silica layers were purchased from Merck (Darmstadt, Germany). Stock solutions (5 µL) of the analytes were spotted manually on the plates with the use of a micropipette from Brand (Wertheim, Germany). The mobile phases were prepared by mixing appropriate volumes of pure organic solvents and water (in step gradient by 10% (v/v)), in the following proportions: (a) methanol–water ranging from 30 to 70% (v/v), in the case of C8-bonded silica gel stationary phase; and (b) methanol–water ranging from 40 to 70% (v/v), in the case of C18-bonded silica gel stationary phase.
(§2) Before analysis, the chromatographic chamber (Twin Trough Chambers from CAMAG Philadelphia, USA) was saturated for 20 min. All TLC experiments were performed at room temperature (22 ± 2 °C). Chromatograms were developed using the ascending technique to a distance of 8 cm. The investigated substances were visualized under UV light at λ = 366 nm by CAMAG UV Lamp 4 and the Viewing Box 4 (Philadelphia, USA). […] The obtained retardation factors (RF) were collected in the Supplementary data sheets. The retention parameter, RM, was calculated for each compound according to the Bate-Smith and Westall formula: (7) RM=log(1/RF−1) and listed in Table S2. Next, the Soczewiński–Wachtmeister’s equation: RM = RM^0 + bC(8) was used in order to determine the basic lipophilic RP-TLC parameter RM^0 as well as commonly used hydrophobic constants m. Soczewiński–Wachtmeister’s equation presented a linear relationship between concentration of the organic solvent in mobile phase (C) and RM value. Moreover, mean value of RM was used for lipophilicity assessments.
(§3) Furthermore, C0 RP-TLC lipophilicity parameter, introduced by Bieganowska, has been calculated according to the formula:(9) C0=−RM^0/b.
(§4) The C0 parameter corresponds to the parameter φ0, previously proposed for the HPLC. This parameter relates to the concentration of the organic component in the mobile phase for which the distribution of the analyzed substance between the mobile and stationary phase is equal (1:1).
(§5) Also, the principal component analysis (PCA) was applied in order to extract information regarding the lipophilicity of solutes and formulate them as the first principal component (PC1). Calculation data matrixes included RM values of solutes for each modifier concentration in the mobile phase.

[2] = RP-TLC lipophilicity, silica gel C8, methanol-water; settings: for C 0: RP-TLC silica gel C8, C0 = −RM^0/b; for PC1: RP-TLC silica gel C8, first principal component of RM values, contains 83.57% of information; for mRM: RP-TLC silica gel C8, mean value of RM; for R M ^0: RP-TLC silica gel C8, methanol-water 30 to 70% (v/v), intercept of Soczewiński–Wachtmeister equation; for b: RP-TLC silica gel C8, slope of Soczewiński–Wachtmeister equation
Procedure: as §1, §2, §3, §4, §5

[3] = MEKC lipophilicity (SDS micelles, pH 7.4); settings: 50 mM SDS, HEPES/TRIS buffer pH 7.4, 25 °C
Procedure: All MEKC experiments were carried out with a P/ACE MDQ plus system (Sciex, Framingham, MA, USA) equipped with photodiode array detector (PDA) and controlled by 32 Karat software (version 10.2). The uncoated fused silica capillaries (50 µm i.d., Polymicro Technologies, West Yorkshire, UK) of 60 cm total length and 50.2 cm effective length were used. Prior to analysis, the capillary was rinsed with 0.1 M NaOH for 30 min, ultrapure water for 10 min, and background electrolyte (BGE) for 30 min. After each analysis, the capillary was conditioned with BGE for 2 min. The applied pressure for all rinsing operations was 345 kPa. The analytes were dissolved in BGE at concentration of 100 µg/mL with addition of quinine (micelles marker). As electroosmotic flow (EOF) marker, DMSO was used. The samples were hydrodynamically injected at 35 kPa for 5 s. The separations were performed by applying voltage of 20 kV with positive polarity and constant temperatures at 25 ± 0.1 °C. The BGE consisted of aqueous solution of 50 mM SDS and 120 mM HEPES /100 mM TRIS buffer of pH 7.4. The BGE was prepared each working day by dilution of stock solution. Detection was carried out at 200 and 280 nm with 8 Hz probing frequency. The logarithm of retention factor logk was calculated according to the equation introduced by Terabe and co-workers:(10) logkMEKC=log(tR−tEOF/tEOF(1−tR/tMC)) The established logk parameters are summarized in Table 2.

| C 0 [1] | PC1 [1] | mRM [1] | R M ^0 [1] | b [1] | C 0 [2] | PC1 [2] | mRM [2] | R M ^0 [2] | b [2] | logk [3] | logk ([3]; listed as pipemidic acid) | Structure (SMILES) |
| --- | --- | --- | --- | --- | --- | --- | --- | --- | --- | --- | --- | --- |
| 1.15 | −1.08 | 1.22 | 2.33 | −2.03 | 1.34 | −4.09 | 1.29 | 2.06 | −1.54 | 0.077 |  | CCn1cc(C(=O)O)c(=O)c2cc(F)c(N3CCNC(C)C3)c(F)c21 (stereo not shown) [Compound 17, reference compound] |
| 1.24 | −2.34 | 1.40 | 2.54 | −2.06 | 1.27 | −5.56 | 1.47 | 2.43 | −1.90 | 0.103 |  | CCn1cc(C(=O)O)c(=O)c2cc(F)c(N3CCNCC3)cc21 [Compound 18, reference compound] |
| 1.07 | 1.18 | 0.89 | 1.83 | −1.71 | 1.09 | −1.26 | 0.93 | 1.71 | −1.56 | −0.153 |  | O=C(O)C1=Cc2ccccc2N2C[N+]3(CCN(c4cc5c(cc4F)c(=O)c(C(=O)O)cn5C4CC4)CC3)N=C12.[Cl-] [Compound 8] |
| 0.86 | 1.32 | 0.88 | 2.45 | −2.84 | 0.86 | −1.79 | 0.96 | 2.29 | −2.66 | −0.261 |  | CC1=CC(C)=C(C(=O)O)C2=N[N+]3(CN12)C(C)CN(c1c(F)c(N)c2c(=O)c(C(=O)O)cn(C4CC4)c2c1F)CC3C.[Cl-] (stereo not shown) [Compound 14] |
| 0.94 | 2.36 | 0.72 | 1.74 | −1.85 | 0.94 | −0.58 | 0.84 | 1.79 | −1.90 | −0.321 |  | CC1=CC(C)=C(C(=O)O)C2=N[N+]3(CCN(c4cc5c(cc4F)c(=O)c(C(=O)O)cn5C4CC4)CC3)CN12.[Cl-] [Compound 4] |
| 1.06 | −1.63 | 1.31 | 2.69 | −2.55 | 0.95 | −4.29 | 1.26 | 2.68 | −2.83 | 0.101 |  | COc1c(N2CCNC(C)C2)c(F)cc2c(=O)c(C(=O)O)cn(C3CC3)c12 (stereo not shown) [Compound 21, reference compound] |
| 0.99 | −1.40 | 1.28 | 2.85 | −2.88 | 1.07 | −3.81 | 1.21 | 2.27 | −2.13 | 0.116 |  | C[C@@H]1CN(c2c(F)c(N)c3c(=O)c(C(=O)O)cn(C4CC4)c3c2F)C[C@H](C)N1 [Compound 20, reference compound] |
| 0.84 | −1.12 | 1.24 | 3.56 | −4.21 | 0.91 | −3.52 | 1.19 | 2.63 | −2.88 | −0.250 |  | COc1c(N2CC3CCC[N+]4(CN5C(=N4)C(C(=O)O)=Cc4ccccc45)C3C2)c(F)cc2c(=O)c(C(=O)O)cn(C3CC3)c12.[Cl-] (stereo not shown) [Compound 15] |
| 1.23 | 0.53 | 0.98 | 1.78 | −1.45 | 2.35 | −1.73 | 1.04 | 1.32 | −0.56 |  |  | CCn1cc(C(=O)O)c(=O)c2cnc(N3CC[N+]4(CC3)CN3C(=N4)C(C(=O)O)=Cc4ccccc43)nc21.[Cl-] [Compound 6] |
| 1.21 | 0.72 | 0.96 | 1.65 | −1.36 | 1.04 | −2.23 | 1.03 | 1.99 | −1.92 | −0.104 |  | CCn1cc(C(=O)O)c(=O)c2cc(F)c(N3CC[N+]4(CC3)CN3C(=N4)C(C(=O)O)=Cc4ccccc43)cc21.[Cl-] [Compound 1] |
| 1.35 | −1.24 | 1.24 | 2.39 | −1.78 | 1.65 | −3.91 | 1.30 | 1.87 | −1.13 | −0.170 | −0.1697 | CCn1cc(C(=O)O)c(=O)c2cnc(N3CCNCC3)nc21 [Compound 19, pipemidic acid, reference compound] |
| 0.88 | 1.74 | 0.82 | 2.18 | −2.47 | 0.92 | −0.64 | 0.83 | 1.82 | −1.97 | −0.408 |  | COc1c(N2CC[N+]3(CN4C(C)=CC(C)=C(C(=O)O)C4=N3)C(C)C2)c(F)cc2c(=O)c(C(=O)O)cn(C3CC3)c12.[Cl-] (stereo not shown) [Compound 13] |
| 1.17 | 0.48 | 0.99 | 1.87 | −1.60 | 1.23 | −2.01 | 1.05 | 1.76 | −1.43 | −0.239 |  | CCn1cc(C(=O)O)c(=O)c2cc(F)c(N3CC[N+]4(CC3)CN3C(=N4)C(C(=O)O)=Cc4ccccc43)nc21.[Cl-] [Compound 7] |
| 1.22 | 2.53 | 0.70 | 1.27 | −1.04 | 1.28 | 0.79 | 0.71 | 1.16 | −0.91 |  |  | CCn1cc(C(=O)O)c(=O)c2cnc(N3CC[N+]4(CC3)CN3C(C)=CC(C)=C(C(=O)O)C3=N4)nc21.[Cl-] [Compound 10] |

| Structure (SMILES) | C 0 [1] | PC1 [1] | mRM [1] | R M ^0 [1] | b [1] | C 0 [2] | PC1 [2] | mRM [2] | R M ^0 [2] | b [2] | logk [3] | logk ([3]; listed as pipemidic acid) |
| --- | --- | --- | --- | --- | --- | --- | --- | --- | --- | --- | --- | --- |
| O=C(O)c1cn(C2CC2)c2cc(N3CCNCC3)c(F)cc2c1=O [Compound 22, ciprofloxacin, reference compound] | 1.30 | −3.88 | 1.62 | 2.79 | −2.15 | 1.61 | −5.04 | 1.41 | 2.04 | −1.27 |  |  |
